Laboratory results as given in patent publication US6737383B1, “Herbicidal oxadiazolidines” (priority 1999, dated 2004).

What was measured:
surinam grass = assay: Test B pre/postemergence surinam grass; type: in vivo, Brachiaria decumbens
How it was run: (§1)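 Response is a visual 0-to-10 score relative to untreated plants, where 0 means no effect and 10 means complete control, taken twelve to sixteen days after application. Treatments went onto soil at planting and onto foliage of 1- to 4-leaf plants, using a surfactant-containing non-phytotoxic solvent.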

corn = assay: Test B pre/postemergence corn; type: in vivo, Zea mays
How it was run: as §1

giant foxtail = assay: Test B pre/postemergence giant foxtail; type: in vivo, Setaria faberii
How it was run: as §1

velvetleaf = assay: Test B pre/postemergence velvetleaf; type: in vivo, Abutilon theophrasti
How it was run: as §1

smallflower flatsedge = assay: Test B flood test smallflower flatsedge; type: in vivo, Cyperus difformis; settings: for S. Flatsedge plant response rating: Postemergence section (flood test species)
How it was run: (§2)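 Each value is a visual injury score relative to controls, with 10 meaning complete control and 0 no effect. Evaluation took place twelve to sixteen days after the 2-leaf-stage plants were treated and kept in the greenhouse.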

duck salad = assay: Test B flood test duck salad; type: in vivo, Heteranthera limosa
How it was run: as §2

morningglory = assay: Test B pre/postemergence morningglory; type: in vivo, Ipomoea hederacea
How it was run: as §1

rape = assay: Test B pre/postemergence rape; type: in vivo, Brassica napus
How it was run: as §1

soybean = assay: Test B pre/postemergence soybean; type: in vivo, Glycine max
How it was run: as §1

crabgrass = assay: Test B pre/postemergence crabgrass; type: in vivo, Digitaria sanguinalis
How it was run: as §1

cocklebur = assay: Test B pre/postemergence cocklebur; type: in vivo, Xanthium strumarium
How it was run: as §1

wild oat = assay: Test B pre/postemergence wild oat; type: in vivo, Avena fatua
How it was run: as §1

blackgrass = assay: Test B pre/postemergence blackgrass; type: in vivo, Alopecurus myosuroides
How it was run: as §1

purple nutsedge = assay: Test B pre/postemergence purple nutsedge; type: in vivo, Cyperus rotundus
How it was run: as §1

sugar beet = assay: Test B pre/postemergence sugar beet; type: in vivo, Beta vulgaris
How it was run: as §1

wheat = assay: Test B pre/postemergence wheat; type: in vivo, Triticum aestivum
How it was run: as §1

[1] = Postemergence, Rate 250 g/ha, scale 0 to 10, 0 is no effect, 10 is complete control
[2] = Postemergence, Rate 500 g/ha, scale of 0 to 10 where 0 is no effect and 10 is complete control
[3] = Preemergence, Rate 62 g/ha, scale 0 to 10 (0 no effect, 10 complete control)
[4] = Preemergence, Rate 125 g/ha, scale of 0 to 10 where 0 is no effect and 10 is complete control
[5] = Preemergence, Rate 250 g/ha, scale of 0 to 10 where 0 is no effect and 10 is complete control
[6] = Rate 62 g/ha, Postemergence, scale of 0 to 10 where 0 is no effect and 10 is complete control
[7] = Rate 125 g/ha, Postemergence, scale 0 to 10, 0 is no effect, 10 is complete control
[8] = Preemergence, Rate 250 g/ha, scale 0 to 10, 0 is no effect, 10 is complete control
[9] = Preemergence, Rate 500 g/ha, scale 0 to 10, 0 is no effect, 10 is complete control
[10] = flood test species, listed under Postemergence, Rate 250 g/ha, scale 0 to 10, 0 is no effect, 10 is complete control

SMILES: CC(C)N(C(=O)n1oc(=O)n(C(CF)CF)c1=O)c1ccccc1 [Compound 421]
- Plant response rating, B. signalgrass (surinam grass; [1]): 7
- B. signalgrass plant response rating (surinam grass; [2]): 10
- Plant response rating, B. signalgrass (surinam grass; [3]): 7
- Plant response rating, B. signalgrass (surinam grass; [4]): 8
- B. signalgrass plant response rating (surinam grass; [5]): 9
- B. signalgrass plant response rating (surinam grass; Preemergence, Rate 500 g/ha, scale of 0 to 10 where 0 is no effect and 10 is complete control): 9
- B. signalgrass plant response rating (surinam grass; [6]): 0
- B. signalgrass plant response rating (surinam grass; [7]): 3
- Plant response rating, Corn (corn; [1]): 3
- Corn plant response rating (corn; [2]): 7
- Plant response rating, Corn (corn; [3]): 4
- Plant response rating, Corn (corn; [4]): 5
- Corn plant response rating (corn; [8]): 8
- Corn plant response rating (corn; [9]): 8
- Corn plant response rating (corn; [6]): 0
- Corn plant response rating (corn; [7]): 0
- Plant response rating, Giant foxtail (giant foxtail; [1]): 9
- Giant foxtail plant response rating (giant foxtail; [2]): 9
- Plant response rating, Giant foxtail (giant foxtail; [3]): 9
- Plant response rating, Giant foxtail (giant foxtail; [4]): 10
- Giant foxtail plant response rating (giant foxtail; [8]): 10
- Giant foxtail plant response rating (giant foxtail; [9]): 10
- Giant foxtail plant response rating (giant foxtail; [6]): 8
- Giant foxtail plant response rating (giant foxtail; [7]): 9
- Plant response rating, Velvetleaf (velvetleaf; [1]): 4
- Velvetleaf plant response rating (velvetleaf; [2]): 7
- Plant response rating, Velvetleaf (velvetleaf; [3]): 8
- Plant response rating, Velvetleaf (velvetleaf; [4]): 9
- Velvetleaf plant response rating (velvetleaf; [8]): 10
- Velvetleaf plant response rating (velvetleaf; [9]): 10
- Velvetleaf plant response rating (velvetleaf; [7]): 0
- S. Flatsedge plant response rating (smallflower flatsedge; Rate 500 g/ha, scale of 0 to 10 where 0 is no effect and 10 is complete control): 0
- S. Flatsedge plant response rating (smallflower flatsedge; Rate 125 g/ha, scale 0 to 10, 0 is no effect, 10 is complete control): 0
- Plant response rating, S. Flatsedge (smallflower flatsedge; [10]): 0
- Ducksalad plant response rating (duck salad; Postemergence section (flood test species), Rate 500 g/ha, scale of 0 to 10 where 0 is no effect and 10 is complete control): 2
- Ducksalad plant response rating (duck salad; Rate 62 g/ha, Postemergence (flood test species), scale of 0 to 10 where 0 is no effect and 10 is complete control): 0
- Ducksalad plant response rating (duck salad; Rate 125 g/ha, Postemergence section (flood test species), scale 0 to 10, 0 is no effect, 10 is complete control): 0
- Plant response rating, Ducksalad (duck salad; [10]): 2
- Plant response rating, Morningglory (morningglory; [1]): 9
- Morningglory plant response rating (morningglory; [2]): 10
- Plant response rating, Morningglory (morningglory; [3]): 4
- Plant response rating, Morningglory (morningglory; [4]): 6
- Morningglory plant response rating (morningglory; [8]): 7
- Morningglory plant response rating (morningglory; [9]): 8
- Morningglory plant response rating (morningglory; [7]): 8
- Plant response rating, Rape (rape; [1]): 3
- Rape plant response rating (rape; [2]): 8
- Plant response rating, Rape (rape; [3]): 8
- Plant response rating, Rape (rape; [4]): 10
- Rape plant response rating (rape; [8]): 10
- Rape plant response rating (rape; [9]): 10
- Rape plant response rating (rape; [7]): 0
- Plant response rating, Soybean (soybean; [1]): 7
- Soybean plant response rating (soybean; [2]): 8
- Plant response rating, Soybean (soybean; [3]): 4
- Plant response rating, Soybean (soybean; [4]): 4
- Soybean plant response rating (soybean; [8]): 5
- Soybean plant response rating (soybean; [9]): 10
- Soybean plant response rating (soybean; [7]): 6
- Plant response rating, Crabgrass (crabgrass; [1]): 8
- Crabgrass plant response rating (crabgrass; [2]): 8
- Plant response rating, Crabgrass (crabgrass; [3]): 8
- Plant response rating, Crabgrass (crabgrass; [4]): 8
- Crabgrass plant response rating (crabgrass; [8]): 9
- Crabgrass plant response rating (crabgrass; [9]): 10
- Crabgrass plant response rating (crabgrass; [6]): 4
- Crabgrass plant response rating (crabgrass; [7]): 7
- Plant response rating, Cocklebur (cocklebur; [1]): 1
- Cocklebur plant response rating (cocklebur; [2]): 6
- Plant response rating, Cocklebur (cocklebur; [3]): 0
- Plant response rating, Cocklebur (cocklebur; [4]): 0
- Cocklebur plant response rating (cocklebur; [9]): 0
- Cocklebur plant response rating (cocklebur; [6]): 0
- Cocklebur plant response rating (cocklebur; [7]): 0
- Wild oats plant response rating (wild oat; [2]): 8
- Plant response rating, Wild oats (wild oat; [3]): 6
- Plant response rating, Wild oats (wild oat; [4]): 7
- Wild oats plant response rating (wild oat; [8]): 10
- Wild oats plant response rating (wild oat; [9]): 10
- Wild oats plant response rating (wild oat; [7]): 0
- Plant response rating, Blackgrass (blackgrass; [1]): 8
- Blackgrass plant response rating (blackgrass; [2]): 10
- Plant response rating, Blackgrass (blackgrass; [3]): 8
- Plant response rating, Blackgrass (blackgrass; [4]): 10
- Blackgrass plant response rating (blackgrass; [5]): 10
- Blackgrass plant response rating (blackgrass; [9]): 10
- Blackgrass plant response rating (blackgrass; [6]): 8
- Blackgrass plant response rating (blackgrass; [7]): 8
- Plant response rating, Nutsedge (purple nutsedge; [1]): 0
- Nutsedge plant response rating (purple nutsedge; [2]): 2
- Plant response rating, Nutsedge (purple nutsedge; [3]): 0
- Plant response rating, Nutsedge (purple nutsedge; [4]): 0
- Nutsedge plant response rating (purple nutsedge; [8]): 0
- Nutsedge plant response rating (purple nutsedge; [9]): 0
- Nutsedge plant response rating (purple nutsedge; [7]): 0
- Plant response rating, Sugarbeets (sugar beet; [1]): 3
- Sugarbeets plant response rating (sugar beet; [2]): 6
- Plant response rating, Sugarbeets (sugar beet; [3]): 8
- Plant response rating, Sugarbeets (sugar beet; [4]): 10
- Sugarbeets plant response rating (sugar beet; [8]): 10
- Sugarbeets plant response rating (sugar beet; [9]): 10
- Sugarbeets plant response rating (sugar beet; [7]): 0
- Wheat plant response rating (wheat; [2]): 7
- Plant response rating, Wheat (wheat; [3]): 4
- Plant response rating, Wheat (wheat; [4]): 4
- Wheat plant response rating (wheat; [8]): 7
- Wheat plant response rating (wheat; [9]): 9
- Wheat plant response rating (wheat; [7]): 1
